Laboratory results published in US11629171B2, “Beta-hairpin peptidomimetics” (POLYPHOR AG, priority 2017, dated 2023).
Values after ≈ are worked out from the molar mass of the structure shown. Where a SMILES comes first, the peptide text is derived from it. Bridges are numbered along the chain shown (N, C = ends). Roman numbers before positions name the chains, in order. [ ]: non-standard residue; d: D form. The star is where a group is joined. Tle = CC(C)(C)[C@H](N)C(=O)O; NMeV = CN[C@H](C(=O)O)C(C)C; Hiv = CC(C)[C@H](O)C(=O)O; dDab = NCC[C@@H](N)C(=O)O; hSer = N[C@@H](CCO)C(=O)O; Dab = NCC[C@H](N)C(=O)O; Dap = NC[C@H](N)C(=O)O; NHCH2CH2OH = OCCN*

Key:
Type in all cases: cell-based
[1] = system: human red blood cells (hRBC); test: Hemolysis; conditions: red cells of human, 1 h, 200
Outline: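 Washed fresh human RBC (20% v/v) incubated with peptide at 200 μg/mL for 1 h at 37° C with shaking. Supernatant OD540 measured after dilution, blank corrected; percent hemolysis = OD540 peptide / OD540 of 2% Triton X-100 lysis × 100, PBS with 10% water as 0%.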

[2] = system: Klebsiella pneumoniae 968733; conditions: 968733
Outline: (§1)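 Cation-adjusted MH-II broth, 0.002% polysorbate 80, inoculum near 10^6 CFU/mL. MIC read visually after 18-20 h, 35° C; units μg/mL.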

[3] = system: Acinetobacter baumannii DSM 30008; conditions: DSM 30008
Outline: as §1

Escherichia coli 926415 = conditions: 926415
Outline: as §1

[4] = system: Escherichia coli ATCC 25922; conditions: ATCC 25922
Outline: as §1

[5] = system: Pseudomonas aeruginosa ATCC 27853; conditions: ATCC 27853
Outline: as §1

[6] = system: Enterobacter cloacae 848840; conditions: 848840
Outline: as §1

[7] = system: Acinetobacter baumannii 872842; conditions: 872842
Outline: as §1

[8] = system: Klebsiella pneumoniae SSI #3010; conditions: SSI #3010
Outline: as §1

Row | SMILES | Hemolysis at 200 μg/mL [1] | MIC [2] | MIC [3] | MIC (Escherichia coli 926415) | MIC [4] | MIC [5] | MIC [6] | MIC [7] | MIC [8] | Acinetobacter baumannii DSM 30008 MIC [3] | Escherichia coli ATCC 25922 MIC [4] | Pseudomonas aeruginosa ATCC 27853 MIC [5] | Klebsiella pneumoniae SSI #3010 MIC [8]
1 | CC(=O)N[C@H](C(=O)N[C@H]1CSSC[C@@H](C(=O)N[C@@H](CO)C(N)=O)NC(=O)[C@H](C(C)(C)C)NC(=O)[C@H](CCO)NC(=O)[C@H](Cc2c[nH]c3ccccc23)NC(=O)[C@H](CCO)NC(=O)[C@@H](CCN)NC(=O)[C@H](CCC(=O)N[C@@H](CCN)C(=O)N[C@H](C(=O)N[C@@H](CCN)C(=O)N[C@H]2CCNC(=O)[C@H]([C@@H](C)O)NC(=O)[C@H](CCN)NC(=O)[C@H](CCN)NC(=O)[C@H](CC(C)C)NC(=O)[C@@H](CC(C)C)NC(=O)[C@H](CCN)NC2=O)[C@@H](C)O)NC(=O)[C@H](CCN)NC(=O)[C@H](Cc2ccc(O)cc2)NC1=O)C(C)C [Ex. 49] (I: Ac-VCY[Dab]E[dDab][hSer]W[hSer][Tle]CS-NH2 / II: [Dab]T[Dab][Dab][Dab][dL]L[Dab][Dab]T; disulfide I:2-I:11; amide I:5-II:N; lactam II:4-II:C) | <1% | 0.125 µg/mL (≈ 0.0509 µM) | 0.0625 µg/mL (≈ 0.0255 µM) | 0.25 µg/mL (≈ 0.102 µM) | 0.125 µg/mL (≈ 0.0509 µM) | 0.125 µg/mL (≈ 0.0509 µM) | 0.25 µg/mL (≈ 0.102 µM) | 0.25 µg/mL (≈ 0.102 µM) | 0.125 µg/mL (≈ 0.0509 µM) | – | – | – | –
2 | CC(C)C[C@@H]1NC(=O)[C@@H](CC(C)C)NC(=O)[C@H](CCN)NC(=O)[C@@H](NC(=O)[C@H](CCN)NC(=O)[C@@H](NC(=O)[C@H](CCN)NC(=O)CC[C@@H]2NC(=O)[C@@H](NC(=O)[C@H](CO)NC(=O)[C@@H](NC(=O)[C@@H](O)C(C)C)[C@@H](C)O)CSSC[C@@H](C(=O)N[C@H](C(=O)N[C@@H](C)C(=O)N[C@@H](Cc3ccc(O)cc3)C(=O)NCCO)C(C)(C)C)NC(=O)[C@H](Cc3c[nH]c4ccccc34)NC(=O)[C@H](CCO)NC(=O)[C@@H](CCN)NC2=O)[C@@H](C)O)CCNC(=O)[C@H]([C@@H](C)O)NC(=O)[C@H](CCN)NC(=O)[C@H](CCN)NC1=O [Ex. 236] (I: H-[Hiv]TSCE[dDab][hSer]WC[Tle]AY-NHCH2CH2OH / II: [Dab]T[Dab][Dab][Dab][dL]L[Dab][Dab]T; disulfide I:4-I:9; amide I:5-II:N; lactam II:4-II:C) | <1% | 8 µg/mL (≈ 3.29 µM) | 0.25 µg/mL (≈ 0.103 µM) | 2 µg/mL (≈ 0.823 µM) | 0.25 µg/mL (≈ 0.103 µM) | 0.25 µg/mL (≈ 0.103 µM) | 1 µg/mL (≈ 0.412 µM) | 2 µg/mL (≈ 0.823 µM) | 0.25 µg/mL (≈ 0.103 µM) | – | – | – | –
3 | CC(=O)N[C@H](C(=O)N[C@H]1CCNC(=O)CC[C@@H](C(=O)N[C@@H](CO)C(N)=O)NC(=O)[C@H](CC(C)C)NC(=O)[C@H](CO)NC(=O)[C@H](Cc2c[nH]c3ccccc23)NC(=O)[C@H](CO)NC(=O)[C@@H](CCN)NC(=O)[C@H](CCC(=O)N[C@@H](CCN)C(=O)N[C@H](C(=O)N[C@@H](CN)C(=O)N[C@H]2CCNC(=O)[C@H]([C@@H](C)O)NC(=O)[C@H](CCN)NC(=O)[C@H](CCN)NC(=O)[C@H](CC(C)C)NC(=O)[C@@H](CC(C)C)NC(=O)[C@H](CCN)NC2=O)[C@@H](C)O)NC(=O)[C@H](CCN)NC(=O)[C@H](Cc2ccc(O)cc2)NC1=O)C(C)C [Ex. 327] (I: Ac-V[Dab]Y[Dab]E[dDab]SWSLES-NH2 / II: [Dab]T[Dap][Dab][Dab][dL]L[Dab][Dab]T; lactam I:2-I:11, II:4-II:C; amide I:5-II:N) | <1% | 0.5 µg/mL (≈ 0.207 µM) | – | 0.25 µg/mL (≈ 0.103 µM) | – | – | 0.125 µg/mL (≈ 0.0517 µM) | 0.125 µg/mL (≈ 0.0517 µM) | – | 0.0625 µg/mL | 0.0625 µg/mL | 0.125 µg/mL | 0.0625 µg/mL
4 | CN[C@H](C(=O)N[C@H]1CSSC[C@@H](C(=O)N[C@@H](CO)C(N)=O)NC(=O)[C@H](C(C)C)NC(=O)[C@H](CCO)NC(=O)[C@H](Cc2c[nH]c3ccccc23)NC(=O)[C@H](CCO)NC(=O)[C@@H](CCN)NC(=O)[C@H](CCC(=O)N[C@@H](CCN)C(=O)N[C@H](C(=O)N[C@@H](CCN)C(=O)N[C@H]2CCNC(=O)[C@H]([C@@H](C)O)NC(=O)[C@H](CCN)NC(=O)[C@H](CCN)NC(=O)[C@H](CC(C)C)NC(=O)[C@@H](CC(C)C)NC(=O)[C@H](CCN)NC2=O)[C@@H](C)O)NC(=O)[C@H](CCN)NC(=O)[C@H](Cc2ccc(O)cc2)NC1=O)C(C)C [Ex. 50] (I: H-[NMeV]CY[Dab]E[dDab][hSer]W[hSer]VCS-NH2 / II: [Dab]T[Dab][Dab][Dab][dL]L[Dab][Dab]T; disulfide I:2-I:11; amide I:5-II:N; lactam II:4-II:C) | <1% | 4 µg/mL (≈ 1.66 µM) | 0.25 µg/mL (≈ 0.104 µM) | 0.5 µg/mL (≈ 0.207 µM) | 0.125 µg/mL (≈ 0.0518 µM) | 0.25 µg/mL (≈ 0.104 µM) | 8 µg/mL (≈ 3.32 µM) | 1 µg/mL (≈ 0.414 µM) | 0.125 µg/mL (≈ 0.0518 µM) | – | – | – | –
5 | CC(=O)N[C@@H](CCN)C(=O)N[C@H](C(=O)N[C@H]1CSSC[C@@H](C(=O)N[C@@H](CO)C(=O)N[C@@H](CCC(=O)O)C(N)=O)NC(=O)[C@H](C(C)(C)C)NC(=O)[C@H](CO)NC(=O)[C@H](Cc2c[nH]c3ccccc23)NC(=O)[C@H](CCN)NC(=O)[C@@H](CCN)NC(=O)[C@H](CCC(=O)N[C@@H](CCN)C(=O)N[C@H](C(=O)N[C@@H](CN)C(=O)N[C@H]2CCNC(=O)[C@H]([C@@H](C)O)NC(=O)[C@H](CCN)NC(=O)[C@H](CCN)NC(=O)[C@H](CC(C)C)NC(=O)[C@@H](CC(C)C)NC(=O)[C@H](CCN)NC2=O)[C@@H](C)O)NC(=O)[C@H](CO)NC(=O)[C@H](Cc2ccc(O)cc2)NC1=O)C(C)C [Ex. 243] (I: Ac-[Dab]VCYSE[dDab][Dab]WS[Tle]CSE-NH2 / II: [Dab]T[Dap][Dab][Dab][dL]L[Dab][Dab]T; disulfide I:3-I:12; amide I:6-II:N; lactam II:4-II:C) | <1% | 0.125 µg/mL (≈ 0.0473 µM) | 0.0625 µg/mL (≈ 0.0237 µM) | 0.125 µg/mL (≈ 0.0473 µM) | 0.0625 µg/mL (≈ 0.0237 µM) | 0.25 µg/mL (≈ 0.0946 µM) | 0.25 µg/mL (≈ 0.0946 µM) | 0.0625 µg/mL (≈ 0.0237 µM) | 0.0625 µg/mL (≈ 0.0237 µM) | – | – | – | –
6 | CC(=O)N[C@H](C(=O)N[C@H]1CSSC[C@@H](C(=O)N[C@@H](CO)C(N)=O)NC(=O)[C@H](C(C)C)NC(=O)[C@H](CO)NC(=O)[C@H](Cc2c[nH]c3ccccc23)NC(=O)[C@H](CO)NC(=O)[C@@H](CCN)NC(=O)[C@H](CCC(=O)N[C@@H](CCN)C(=O)NCC(=O)N[C@@H](CN)C(=O)N[C@H]2CCNC(=O)[C@H]([C@@H](C)O)NC(=O)[C@H](CCN)NC(=O)[C@H](CCN)NC(=O)[C@H](CC(C)C)NC(=O)[C@@H](CC(C)C)NC(=O)[C@H](CCN)NC2=O)NC(=O)[C@H](CCN)NC(=O)[C@H](Cc2ccc(O)cc2)NC1=O)C(C)C [Ex. 307] (I: Ac-VCY[Dab]E[dDab]SWSVCS-NH2 / II: [Dab]G[Dap][Dab][Dab][dL]L[Dab][Dab]T; disulfide I:2-I:11; amide I:5-II:N; lactam II:4-II:C) | <1% | 1 µg/mL (≈ 0.425 µM) | – | 0.5 µg/mL (≈ 0.212 µM) | – | – | 4 µg/mL (≈ 1.7 µM) | 0.5 µg/mL (≈ 0.212 µM) | – | 0.25 µg/mL | 0.125 µg/mL | 0.125 µg/mL | 0.125 µg/mL
